The values below come from patent US8541193B2, “Cationic anti-microbial peptides and methods of use thereof” (Systagenix Wound Management (US), Inc., priority 2003, dated 2013).

For experiment [1], the system named is Serratia. The experiment in a line: Fluorimetric (edans/dabcyl) protease detection assay with bacterial culture in buffer. Format: biochemical. To be noted: Serratia bacterial culture (media and cells), 37 C, 1 hr. The protocol:
(§1) The peptide substrates used here were labeled with the fluorescent probe edans (5-((2-aminoethyl)amino)naphthalene-1-sulphonic acid) and the quencher dye molecule dabcyl((4-(4-(dimethylamino)phenyl)azo)benzoic acid).
(§2) The bacteria were grown in an incubator overnight at 37° C. in 5 ml BHI (Brain Heart Infusion) media. Each of the resulting cultures was split into two samples. One was used as is, and the other was spun down and the supernatant was collected. The assays were run in 20 mM tris buffer (pH 7.4) with 150 mM NaCl added. The reaction was carried out with 7 μl of culture or supernatant and 3 μl peptide substrate (5 mg/ml in water) in 100 μl total volume at 37 C. The reaction was followed on a fluorimetric plate reader using an excitation wavelength of 355 nm and an emission wavelength of 485 nm.
The first set of experiments was performed by addition of the bacterial culture (media and cells) directly into the assay solution. If the protease is attached to the cell membrane it would not be expected to be found secreted into the media. […]
Bacterial cells used in this assay were grown to stationary phase in Brain Heart Infusion (BHI) medium. […] The reaction was followed on a 96 well microtiter plate reader using an excitation an emission wavelength of 355 nm and 538 nm respectively at 37° C. The reaction was monitored for a period of 1 hr. and plotted using the KALEIDAGRAPH software. […]

The subject of experiment [2] is S. pyogenes. The experiment in a line: Fluorimetric (edans/dabcyl) protease detection assay with bacterial culture or supernatant in buffer. Format: biochemical. The protocol: as §1, §2
(§3) The first set of experiments was performed by addition of the bacterial culture (media and cells) directly into the assay solution. If the protease is attached to the cell membrane it would not be expected to be found secreted into the media. Thus, the presence of cells would be necessary.
(§4) Bacterial cells used in this assay were grown to stationary phase in Brain Heart Infusion (BHI) medium. Briefly, 7 μl of bacterial culture was incubated with 3 μl of LL 1 peptide substrate and […] of […]). The reaction was followed on a 96 well microtiter plate reader using an excitation an emission wavelength of 355 nm and 538 nm respectively at 37° C. The reaction was monitored for a period of 1 hr. and plotted using the KALEIDAGRAPH software. Buffer, 20 mM Tris buffer (pH 7.4) with 150 mM NaCl.
(§5) The assay was repeated using identical conditions with the peptide LL2.
(§6) Bacterial cells used in this assay were grown to stationary phase in Brain Heart Infusion (BHI) medium. The assay was performed as previously described.

The subject of experiment [3] is Pseudomonas. The description is as above. Format: biochemical. Here is the method: as §1, §2, §3, §4, §5, §6
Experiment [4] deals with S. pyogenes. The experiment in a line: Porcine wound fluid protease assay. Format: biochemical. To be noted: S. pyogenes bacterial supernatant in porcine wound fluid. Here is the method:
(§7) In order to test for cross reactivity in a wound, the assays were performed under physiologically relevant conditions. The assay for LL1 and LL2 were tested using porcine wound fluid extract in place of reaction buffer.
(§8) Immediately after surgery to create partial thickness wounds for the sensor study a gauze dressing was placed on the wound. After a time the dressing was removed, bagged, and placed in a freezer at −80 C. Absorbed wound fluid was recovered from the dressing by incubation in 10 mls buffer (0.1M Tris-HCl, pH 7.4 with 0.1% TRITON X-100® non-ionic surfactant (Octylphenol ethylene oxide condensate; Sigma Aldrich, St. Louis, Mo.). The dressing was incubated on both sides for 2 hours at room temperature and squeezed out. The fluid obtained was aliquoted out and frozen at −20 C.
(§9) The bacteria were grown in an incubator overnight at 37° C. in 5 ml BHI (Brain Heart Infusion) media. Each of the resulting cultures was spun down and the supernatant was collected. The assays were run in freshly thawed wound fluid. The reaction was carried out with 7 μl of culture or supernatant and 3 μl peptide substrate (5 mg/ml in water) in 100 μl total volume at 37 C. The reaction was followed on a fluorimetric plate reader using an excitation wavelength of 355 nm and an emission wavelength of 485 nm.
(§10) The protease assay was run using the LL2 peptide previously identified as a substrate for S. pyogenes and Pseudomonas.
(§11) Bacterial cells used in this assay were grown to stationary phase in Brain Heart Infusion […] medium. Briefly, 5 μl of bacterial culture was incubated with 3 μl of LL2 peptide substrate and 92 μl of sterile wound fluid. The reaction was followed on a 96 well microtiter plate reader using an excitation an emission wavelength of 355 nm and 538 nm respectively at 37° C. The reaction was monitored for a period of 1 h and plotted using the KALEIDAGRAPH software.

In experiment [5] the test system is Pseudomonas. The experiment in a line: Porcine wound fluid protease assay. Format: biochemical. Here is the method: as §7, §8, §9, §10, §11
The subject of experiment [6] is proteinases secreted by Proteus mirabilis. The settings on record: in vitro; cited from earlier work.
The subject of experiment [7] is proteinases secreted by Streptococcus pyogenes. The settings on record: in vitro; cited from earlier work.
The test system of experiment [8] is proteinases secreted by Enterococcus faecalis. The settings on record: in vitro; cited from earlier work.
Experiment [9] deals with proteinases secreted by Pseudomonas aeruginosa. To be noted: in vitro; cited from earlier work.
[10] abbreviates: S. pyogenes bacterial culture (media and cells), buffer, 37 C, 1 hr.
Setting [11] is: Pseudomonas bacterial culture (media and cells), buffer, 37 C, 1 hr.
Setting [12] is: Pseudomonas bacterial supernatant, compared with culture with cells.

Where no end group is shown, it is not given here.

“LL1: peptide substrate, variant of LL-37 encompassing its cleavage sites, labeled with fluorescent probe edans and quencher dabcyl (FIG. 1B) (KEKIGKEFKRIVQE; also: labeled with edans and dabcyl)”: the “protease activity on peptide substrate (fluorescence)” value in experiment [1] is “a small amount of activity”; in [2] (setting [10]), “Some protease activity”; in experiment [2] (S. pyogenes bacterial supernatant, compared with culture with cells), “similar”; in experiment [3] (setting [11]) it was “Some protease activity”; in [3] (setting [12]), “reduced”.
For the substance “LL2: peptide substrate, variant of LL-37 encompassing its cleavage sites, labeled with fluorescent probe edans and quencher dabcyl (FIG. 1C) (KVQRIKDFLRNLVE; also: labeled with edans and dabcyl)”, the “specificity of peptide substrate” value in [2] (FIG. 3 legend) was “specific for S. pyogenes”. The “protease activity on peptide substrate (fluorescence)” value in experiment [2] (setting [10]) was “overall reactivity appears to be reduced somewhat”; in [3] (setting [11]), “overall reactivity appears to be reduced somewhat”; in experiment [3] (setting [12]), “reduced”; in [4], “same results”; in experiment [5] (Pseudomonas bacterial culture in sterile porcine wound fluid, 37 C, 1 h), “did not have any activity above the background”; in experiment [5] (Pseudomonas bacterial supernatant in porcine wound fluid), “same results”.
Regarding “LLGDFFRKSKEKIGKE FKRIVQRIKDFLRNLVPRTES [LL-37]”, the “degradation of peptide by secreted proteinases” value in experiment [6], in experiment [7], in [8] and in experiment [9] was “degrade” each time.
